The text below walks through data of US20250281453A1, “COMBINATION THERAPIES COMPRISING QTX125” (QUIMATRYX, S.L., priority 2022, published 2025).

SMILES strings stand for the structures.

What all share (assay type): cell-based
For data set [1], the system named is Panc-1 pancreatic cancer cells. In words: Cell viability, ALAMAR blue assay, monotherapy. Particulars: for EC50: 72 h, read-out: EC50 dose of monotherapy. On the procedure:
(§1) In brief, HCT-116, MiaPaCa-2 and Panc-1 cells were thawed in high glucose DMEM (Sigma D5796) with 10% heat-inactivated Foetal Calf Serum (FCS) (PAA, A15-101)). Hep-G2 and SK-Hep1 cells were thawed in Minimum Essential Media (MEM) (Sigma M2279) with 1% non-essential amino acids (Sigma M7145), 2 mM Glutamine (Sigma G7513) and 10% FCS. SK-OV-3 cells were thawed in McCoy's 5A medium (Sigma, M8403) with 15% FCS. All cells were passaged by washing once in cation-free dPBS (Sigma, D1408), and incubated for 3 minutes with trypsin ([0.5 μg/ml]/EDTA [0.2 μg/ml] (Sigma, T4174) in dPBS). Passage was completed at 37° C., and cells were transferred to the appropriate media. Prior to seeding at defined cell density, cells were recovered in medium, centrifuged and resuspended for counting.
(§2) To prepare cells for viability assays, cells were transferred into 96 well tissue culture plates (Cultek), and resuspended in 100 µL at the following densities: 10,000 cells/well (Hep-G2 and MiaPaCa-2), 5000 cells/well (Panc-1 and SK-OV-3) or 3000 cells/well (HCT-116). Following 24 hours of incubation, media was removed and replaced with 100 µL media spiked with QTX125 and the test chemotherapeutic agents. Stock solutions for the agents used in this study are shown below in Table 1. Cells were incubated for a further 72 hours before cell viability was assessed using both ALAMAR® and hexosaminidase assays.
(§3) For the ALAMAR® blue assay, media containing QTX125 and the test chemotherapeutic agents was removed, and cells were stained using ALAMAR® blue (BioSource DAL 1100) for 4 hours at 37° C., following the manufacturer's instructions. Relative fluorescent intensity was measured using a Cytofluor® plate reader (Millipore) at 535/590 nm (Excitation/emission). This measure directly correlates with the number of viable cells present in each well.
(§4) A number of appropriate control samples were included. First, absorbance values measured in reagent ‘blank’ wells (containing cell culture medium and colorimetric agent only) were subtracted from ‘test’ sample-containing wells. ‘Blank’ absorbance values were routinely between 5 and 10% of the values recorded in test wells. Absorbance values recorded in test wells were then compared against wells containing (i) cells stimulated with QTX125 only; (ii) cells stimulated with sorafenib, gemcitabine or bortezomib only and/or (iii) unstimulated cells, as appropriate.
(§5) Control values were normalised to 100% and percentage (%) viability was calculated. Data were used to plot log dose-response curves using a sigmoid dose-response (variable slope) equation. EC50 values were obtained using Equation 1, where ‘X’ is the logarithmic concentration; ‘Y’ is the response output and it is assumed that Y starts at bottom of the graph and reaches the top with an overall sigmoid shape.
(§6) Prior to assessing the oncolytic efficacy of QTX125-containing combination therapies, the oncolytic effect of each test agent was assessed in isolation. Dose-response curves were produced by serial dilution (1:1), thereby allowing monotherapy EC50 values to be calculated.
(§7) Chemotherapeutic agents were added to wells at a starting concentration of 100 μM. However, it was quickly determined that it was not possible to use this range for all chemotherapeutic agents tested. An optimization study was therefore completed to identify suitable maximum (‘high’) doses for each agent and in each individual cell line.
In general terms: Resazurin is reduced to fluorescent resorufin, in cell work by metabolically active cells.

The subject of data set [2] is MiaPaCa-2 pancreatic cancer cells. The data set is described as follows: Cell viability, ALAMAR blue assay, monotherapy. Particulars: for percentage (%) cell viabilities: 72 hours of high-dose monotherapy (Table 2: QTX125 100, sorafenib 100, gemcitabine 100, bortezomib 1 μM); for EC50: MIA PaCa-2, 72 h, 72 h, read-out: EC50 dose of monotherapy. On the procedure: as §1, §2, §3, §4, §5, §6, §7

The test system of data set [3] is Hep-G2 hepatic cancer cells. The data set is described as follows: Cell viability, ALAMAR blue assay, monotherapy. Particulars: for percentage (%) cell viabilities: 72 hours of high-dose monotherapy (Table 2: QTX125 5, sorafenib 100, gemcitabine 100, bortezomib 1 μM); for EC50: HepG2, 72 h, read-out: EC50 dose of monotherapy. On the procedure: as §1, §2, §3, §4, §5, §6, §7

In data set [4] the test system is SK-OV-3 ovarian cancer cells. The data set is described as follows: Cell viability, ALAMAR blue assay, monotherapy. Particulars: for EC50: 72 h, read-out: EC50 dose of monotherapy. On the procedure: as §1, §2, §3, §4, §5, §6, §7
Data set [5] deals with HCT-116 colonic cancer cells. In words: Cell viability, ALAMAR blue assay, monotherapy. Particulars: for EC50: 72 h, read-out: EC50 dose of monotherapy. On the procedure:
as §1, §2, §3, §4, §5, §6, §7

Data set [6] deals with Panc-1 pancreatic cancer cells. In words: Cell viability, hexosaminidase assay, monotherapy. Particulars: for EC50: read-out: EC50 dose of monotherapy. Here is the method:
as §1, §2
(§8) For the hexosaminidase assay, media containing QTX125 and the test chemotherapeutic agents was removed, and cells were washed once with PBS. 60 μL of substrate solution (containing: 7.5 mM p-nitrophenol-N-acetyl-beta-D-glucosamide [Sigma N-9376], 0.1 M sodium citrate, pH 5.0 and 0.25% Triton X-100) was added to each well and cells were incubated at 37° C. for at least 1 hour. Incubating cells in this manner causes the substrate solution to become bright yellow, at which point 90 μL of developer solution (containing 50 mM Glycine pH 10.4 and 5 mM EDTA) was added to each well. Absorbance at 410 nm was recorded using a plate reader.
as §4, §5, §6, §7

Data set [7] deals with MiaPaCa-2 pancreatic cancer cells. The data set is described as follows: Cell viability, hexosaminidase assay, monotherapy. Particulars: for percentage (%) cell viabilities: 72 hours of high-dose monotherapy (Table 2: QTX125 100, sorafenib 100, gemcitabine 100, bortezomib 1 μM); for EC50: MIA PaCa-2, 72 h, read-out: EC50 dose of monotherapy. Here is the method: as §1, §2, §8, §4, §5, §6, §7

In data set [8] the test system is Hep-G2 hepatic cancer cells. The data set is described as follows: Cell viability, hexosaminidase assay, monotherapy. Particulars: for percentage (%) cell viabilities: 72 hours of high-dose monotherapy (Table 2: QTX125 5, sorafenib 100, gemcitabine 100, bortezomib 1 μM); for EC50: HepG2, 72 h, read-out: EC50 dose of monotherapy. On the procedure:
as §1, §2, §8, §4, §5, §6, §7

For data set [9], the system named is SK-OV-3 ovarian cancer cells. The data set is described as follows: Cell viability, hexosaminidase assay, monotherapy. Particulars: for EC50: read-out: EC50 dose of monotherapy. On the procedure:
as §1, §2, §8, §4, §5, §6, §7

In data set [10] the test system is HCT-116 colonic cancer cells. In words: Cell viability, hexosaminidase assay, monotherapy. Particulars: for EC50: read-out: EC50 dose of monotherapy. Here is the method: as §1, §2, §8, §4, §5, §6, §7
Setting [11] is: 72 hours of high-dose monotherapy (Table 2: QTX125 100, sorafenib 100, gemcitabine 100, bortezomib 1 μM).
[12] abbreviates: 72 hours of high-dose monotherapy (Table 2: QTX125 10, sorafenib 100, gemcitabine 10, bortezomib 1 μM).
[13] abbreviates: 72 hours of high-dose monotherapy (Table 2: QTX125 1, sorafenib 100, gemcitabine 10, bortezomib 1 μM).
Setting [14] is: high-dose monotherapy, 72 hours.
The mark [15] stands for this setting: Homo sapiens, 72 hours of high-dose monotherapy (Table 2: QTX125 100, sorafenib 100, gemcitabine 100, bortezomib 1 μM), read-out: percentage (%) cell viabilities.
Where [16] appears, read: Homo sapiens, MIA PaCa-2, 72 hours of high-dose monotherapy (Table 2: QTX125 100, sorafenib 100, gemcitabine 100, bortezomib 1 μM), read-out: percentage (%) cell viabilities.
The mark [17] stands for this setting: Homo sapiens, HepG2, 72 hours of high-dose monotherapy (Table 2: QTX125 5, sorafenib 100, gemcitabine 100, bortezomib 1 μM), read-out: percentage (%) cell viabilities.
Where [18] appears, read: Homo sapiens, 72 hours of high-dose monotherapy (Table 2: QTX125 10, sorafenib 100, gemcitabine 10, bortezomib 1 μM), read-out: percentage (%) cell viabilities.
Setting [19] is: Homo sapiens, 72 hours of high-dose monotherapy (Table 2: QTX125 1, sorafenib 100, gemcitabine 10, bortezomib 1 μM), read-out: percentage (%) cell viabilities.

Usually EC50 stands for the concentration at which the effect is half-maximal. Consider `CNC(=O)c1cc(Oc2ccc(NC(=O)Nc3ccc(Cl)c(C(F)(F)F)c3)cc2)ccn1` [sorafenib], for which the “percentage (%) cell viabilities” value in data set [1] (setting [11]) was 0.0%; in [2] it was 0.0%; in data set [3], 0.0%; in [4] (setting [12]) it was 0.0%; in [5] (setting [13]) it was 0.0%; in data set [6] (setting [11]) it was 4.4%. For the same compound, the “percentage (%) cell viabilities” value in data set [7] is 4.7%; in data set [8], 1.8%; in [9] (setting [12]), 2.3%; in [10] (setting [13]) it was 2.4%. Moreover, the EC50 was 7200 ± 800 nM in [1] (Homo sapiens); 620 ± 160 nM in data set [3] (Homo sapiens); 17000 ± 2800 nM in data set [4] (Homo sapiens); 4000 ± 600 nM in [5] (Homo sapiens); 7400 ± 1000 nM in data set [6] (Homo sapiens, 72 h); 6800 ± 900 nM in [7] (Homo sapiens). For the same compound, the EC50 in [8] (Homo sapiens) stood at 2700 nM; in data set [9] (Homo sapiens, 72 h) it was 12700 ± 1700 nM; in [10] (Homo sapiens, 72 h) it was 3600 ± 500 nM. In addition, the “reduction of the population of viable cells” value (“reduction” below) in data set [8] (setting [14]) is recorded as “more than 98%”.

On to `CC(C)C[C@H](NC(=O)[C@H](Cc1ccccc1)NC(=O)c1cnccn1)B(O)O` [bortezomib], for which the EC50 in data set [1] (Homo sapiens) came to 6.2 nM; in [2] (Homo sapiens), 13 ± 0.5 nM; in [3] (Homo sapiens), 16 ± 0.7 nM; in data set [4] (Homo sapiens), 7 ± 1 nM; in data set [5] (Homo sapiens) it was 7.9 ± 0.4 nM; in data set [6] (Homo sapiens, 72 h), 9.3 ± 0.8 nM. Moreover, the concentration giving a half-maximal response (EC50) in data set [7] (Homo sapiens) came to 8.6 ± 0.5 nM; in data set [8] (Homo sapiens) it was 16 ± 1 nM; in data set [9] (Homo sapiens, 72 h) it was 6.8 ± 0.4 nM; in data set [10] (Homo sapiens, 72 h), 6.6 ± 0.5 nM. In addition, the viability at 1 µM in data set [1] (setting [15]) is 0%; in data set [2] (setting [16]), 0%; in [3] (setting [17]) it was 0%; in data set [4] (setting [18]), 0%; in data set [5] (setting [19]), 0%; in [6] (setting [15]), 3%. For the same compound, the viability at 1 µM came out at 4.1% in data set [7] (setting [16]), 8.8% in data set [8] (setting [17]), 9.3% in [9] (setting [18]) and 4.9% in data set [10] (setting [19]). The “reduction” value in [6] (setting [14]) turned out to be 97%.

`Nc1ccn([C@@H]2O[C@H](CO)[C@@H](O)C2(F)F)c(=O)n1` [gemcitabine]: the “percentage (%) cell viabilities” value in data set [1] (setting [11]) was found to be 8.5%; in data set [2] it was 24%; in data set [3] it was 24%; in data set [4] (setting [12]), 38%; in data set [5] (setting [13]), 1.9%; in [6] (setting [11]) it was 62%. The “percentage (%) cell viabilities” value in [7] stood at 47%; in data set [8] it was 54%; in [9] (setting [12]) it was 50%; in [10] (setting [13]), 20%. Moreover, the EC50 in data set [2] (Homo sapiens) turned out to be 26 nM; in [7] (Homo sapiens) it was 33 nM. Besides, the “reduction” value in data set [5] (setting [14]) was “more than 98%”. For the same compound, the “EC50 dose of monotherapy” value in data set [6] (72 h), in data set [8] (72 h), in data set [9] (72 h) and in [10] (72 h) was “resistant” throughout.
